{"source": "patent US9982011B2", "about": "“Legumain activated doxorubicin derivative as well as preparation method and application thereof” (priority 2012, dated 2018)", "key": {"Cathepsin B [1]": {"target": "T1, Cathepsin B (Homo sapiens, UniProt P07858)", "assay": "Cathepsin enzymatic activity with Z-Phe-Arg-NMec substrate", "format": "biochemical", "details": "pH 6.0, FIG. 2", "description": "Furthermore, Z-Phe-Arg-NMec was used as substrate to analyze the activity of cathepsin under pH 6.0. […] Cathepsin B was highly expressed in the lysosome of the tumor cell. It could degrade type I collagen, activate interstitial procollagenase and type IV procollagenase, and degrade type I, II, III and IV collagen fibers in the stroma, thus anticipating infiltration and metastasis of tumor."}, "serum albumin": {"target": "serum albumin (Mus musculus, UniProt P07724)", "sequence (P07724 25-608)": "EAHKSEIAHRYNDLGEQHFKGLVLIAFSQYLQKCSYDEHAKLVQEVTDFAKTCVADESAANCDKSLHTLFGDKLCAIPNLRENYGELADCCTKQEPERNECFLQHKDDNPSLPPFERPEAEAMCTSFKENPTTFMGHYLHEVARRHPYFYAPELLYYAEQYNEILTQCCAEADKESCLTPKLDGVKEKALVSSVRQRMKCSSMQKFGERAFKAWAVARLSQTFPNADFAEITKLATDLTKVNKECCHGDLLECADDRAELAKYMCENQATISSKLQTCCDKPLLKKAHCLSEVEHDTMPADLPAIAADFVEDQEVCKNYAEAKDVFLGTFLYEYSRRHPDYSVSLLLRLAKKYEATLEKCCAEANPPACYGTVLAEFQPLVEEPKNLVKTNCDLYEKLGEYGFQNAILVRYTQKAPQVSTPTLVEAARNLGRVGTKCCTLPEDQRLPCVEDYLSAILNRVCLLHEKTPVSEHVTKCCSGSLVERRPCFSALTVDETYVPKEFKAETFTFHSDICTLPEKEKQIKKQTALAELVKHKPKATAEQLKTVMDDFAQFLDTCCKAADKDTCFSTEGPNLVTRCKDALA", "details": "blood taken 10 minutes after intravenous tail injection", "quoted_text": "Bloods were taken after 10 minutes and centrifuged to obtain serum. The proteins in the serum were precipitated by 70% ethanol."}, "4T1 cells": {"system": "4T1 cells", "assay": "Tumor growth inhibition in 4T1 breast cancer model in BALB/C mice", "format": "in vivo", "description": "Test purpose: to investigate the anti-tumor efficacy of Succinyl-AANL-DOX (SEQ ID NO: 2) and EMC-AANL-DOX (SEQ ID NO: 2) in a 4T1 breast cancer treatment model from BALB/C mice.\nTreatment drug: Succinyl-AANL-DOX (SEQ ID NO: 2) and EMC-AANL-DOX (SEQ ID NO: 2) injections, and doxorubicin hydrochloride injection, diluted to corresponding concentrations by physiological saline when testing.\n1) 4T1 cells were purchased from American type culture collection (ATCC) and identified according the specification provided by ATCC.\n2) Production of tumor. 10^6 4T1 cells were subcutaneously injected to the back of the BALB/C mice. Mice were randomly grouped after the diameter of the tumor reached about 0.3 cm to 0.4 cm. Then treatment began.\nSuccinyl-AANL-DOX (SEQ ID NO: 2), Legubicin and EMC-AANL-DOX (SEQ ID NO: 2) were intraperitoneally injected. The dose of Succinyl-AANL-DOX (SEQ ID NO: 2), Legubicin and EMC-AANL-DOX (SEQ ID NO: 2) were all 28.16 μmol/kg. The dose of doxorubicin hydrochloride was 3.448 μmol/kg. The control group was administered with physiological saline. The drugs were administered twice weekly for three weeks.\n4) Results and discussion."}, "Cathepsin B [2]": {"target": "T1, Cathepsin B", "assay": "In vitro binding to cathepsin absorbed on a 96-well plate (fluorescence of bound drug)", "details": "cathepsin absorbed on 96-well plate, blocked with BSA, FIG. 1", "description": "The R6 group allows the drug to be able to target cathepsin (Cathepsin B) in the tumor microenvironment and inhibit the activity of cathepsin necessary for tumor growth, development and metastasis. […] The R6 group also allows the drug to have an additional function of targeting tumor, thus the drug has two targeted effects.\nThe test method was described as follows. Cathepsin was absorbed on a 96-well plate and blocked with BSA. Succinyl-AANL-DOX (SEQ ID NO: 2), S1 and a mixture of S1 and E-64 (an inhibitor for specific binding of cathepsin) were added to allow them to bind to the cathepsin on the 96-well plate. The unbound drugs were removed and the fluorescence of the bound drug was detected."}, "[3]": {"assay": "Distribution of drug in tumor and heart tissues after intravenous injection", "format": "in vivo", "details": "for Distribution in tumor tissue sections (fluorescence microscope): 12 hours after intravenous injection of 10 μmol/kg, compared with Succinyl-AANL-DOX, FIG. 3; for Accumulation in the heart tissue / Accumulation in the tumor tissue: FIG. 4; for Accumulation in the tumor tissue: compared with doxorubicin and Succinyl-AANL-DOX", "description": "After intravenous injection of EMC-AANL-DOX (SEQ ID NO: 2), EMC-AANL-DOX (SEQ ID NO: 2) could accumulate at the tumor site due to the targeting property of the EMC group, as compared with Succinyl-AANL-DOX (SEQ ID NO: 2) and more EMC-AANL-DOX (SEQ ID NO: 2) were distributed in the tumor tissue. Since the drug itself could produce fluorescence, we detected distribution of Succinyl-AANL-DOX (SEQ ID NO: 2) and EMC-AANL-DOX (SEQ ID NO: 2) in the tumor tissue sections by fluorescence microscope 12 hours after intravenous injection of 10 μmol/kg Succinyl-AANL-DOX (SEQ ID NO: 2) and EMC-AANL-DOX (SEQ ID NO: 2). The nucleus was stained by 4′,6-diamidino-2-phenylindole (DAPI)."}, "BALB/C mice": {"system": "BALB/C mice", "assay": "Maximum tolerated dose (MTD) / acute toxicity of a single injection in mice", "details": "single injection; for Mortality rate (%) / Number of dead animal: 6 female BALB/C mice", "description": "Test purpose: to investigate the acute toxicity of the subject new drug formulation via MTD assay by intravenous administration to mice.\nTest drug: S1 and S2 injections, diluted to the corresponding concentrations with physiological saline when tested.\nAnimal: the first class BALB/C mice, weighing 19-21 g and all mice being female.\nMethod and results: 36 female BALB/C mice weighing 19-21 g were randomly divided into 6 groups according to their body weights, with 6 mice in each group. […] Control tests were performed by injecting 0.2 ml physiological saline or doxorubicin hydrochloride. […] Blood samples were taken on the 3, 5 and 14 days for counting the whole blood cells. Animals were anatomized on day 14 to take the heart, liver, kidney, lung, spleen, and pancreas for HE staining.\nThe MTD for intravenous administration of a test drug is an important reference index for drug toxicity."}, "[4]": {"assay": "Metabolic half-life in mice blood"}, "A549": {"system": "A549", "assay": "Efficacy at different doses in human non-small cell lung cancer A549 model", "format": "in vivo", "details": "FIG. 6", "description": "In some examples and many other tumor treatment modes of the present invention, efficacies of Succinyl-AANL-DOX (SEQ ID NO: 2) and EMC-AANL-DOX (SEQ ID NO: 2) were also studied and compared according to the same method as described above. […] Thus, EMC-AANL-DOX (SEQ ID NO: 2) could satisfy our requirements on clinical development."}}, "note": "“Also recorded” adds a separate entry of the source.", "data": [{"compound": "COc1cccc2c1C(=O)c1c(O)c3c(c(O)c1C2=O)CC(O)(C(=O)CO)CC3OC1CC(NC(=O)C(CC(C)C)NC(=O)C(CC(N)=O)NC(=O)C(C)NC(=O)C(C)NC(=O)CCCCCN2C(=O)C=CC2=O)C(O)C(C)O1", "note": "(centres unmarked) [Example S1, EMC-AANL-Doxorubicin]", "values": [{"measurement": "Inhibition of enzymatic activity of cathepsin", "setting": "Cathepsin B [1]", "value": "could effectively inhibit the enzymatic activity of cathepsin"}, {"measurement": "Binding to serum albumin / plasma protein in blood", "setting": "serum albumin", "value": "most of S1 could bind to serum albumin and thus precipitated; also recorded: most of S1 bound to the plasma protein"}, {"measurement": "Inhibitory effect on tumor growth (in words)", "setting": "4T1 cells; 28.16 μmol/kg i.p. twice weekly for three weeks, compared with Succinyl-AANL-DOX, Dox and BOC-AANL-DOX, FIG. 5", "value": "could significantly improve the inhibitory effect on tumor growth; also recorded: exhibits a superior inhibitory effect on tumor growth"}, {"measurement": "Inhibitory effect on tumor growth relative to Succinyl-AANL-DOX", "setting": "4T1 cells; 4T1 breast cancer model, etc.", "value": "4-5 folds"}, {"measurement": "Binding to cathepsin", "setting": "Cathepsin B [2]", "value": "bound to the cathepsin; also recorded: can bind cathepsin"}, {"measurement": "Binding to cathepsin", "setting": "Cathepsin B [2]; listed as EMC-AANL-DOX", "value": "can efficiently bind to Cathepsin B"}, {"measurement": "Distribution in tumor tissue sections (fluorescence microscope)", "setting": "[3]", "value": "have the effect to accumulate the drug at tumor cell"}, {"measurement": "Distribution in tumor tissue sections (fluorescence microscope)", "setting": "[3]; listed as EMC-AANL-DOX", "value": "significantly more"}, {"measurement": "Accumulation in the heart tissue", "setting": "[3]", "value": "reduced accumulation in the heart"}, {"measurement": "Accumulation in the heart tissue", "setting": "[3]; listed as EMC-AANL-DOX", "value": "no accumulation in the heart tissue"}, {"measurement": "Accumulation in the tumor tissue", "setting": "[3]", "value": "accumulation of S1 in the tumor site"}, {"measurement": "Accumulation in the tumor tissue", "setting": "[3]; listed as EMC-AANL-DOX", "value": "accumulated in a higher concentration in the tumor tissue"}, {"measurement": "Mortality rate (%)", "setting": "BALB/C mice; 50 mg/kg", "value": 0, "unit": "%"}, {"measurement": "Number of dead animal", "setting": "BALB/C mice; 50 mg/kg, observed 17 days", "value": 0}, {"measurement": "Mortality rate (%)", "setting": "BALB/C mice; 100 mg/kg", "value": 0, "unit": "%"}, {"measurement": "Number of dead animal", "setting": "BALB/C mice; 100 mg/kg", "value": 0}, {"measurement": "Mortality rate (%)", "setting": "BALB/C mice; 150 mg/kg", "value": 0, "unit": "%"}, {"measurement": "Number of dead animal", "setting": "BALB/C mice; 150 mg/kg", "value": 0}, {"measurement": "Abnormal behaviors and death observed", "setting": "BALB/C mice; 150 mg/kg, mice", "value": "no pilo-erection, hair tousle and lackluster, lethargy, stoop, irritable reaction and death were observed"}, {"measurement": "Mortality rate (%)", "setting": "BALB/C mice; 200 mg/kg", "value": 33.3, "unit": "%"}, {"measurement": "Number of dead animal", "setting": "BALB/C mice; 200 mg/kg", "value": 2}, {"measurement": "Mortality rate (%)", "setting": "BALB/C mice; 300 mg/kg", "value": 100, "unit": "%"}, {"measurement": "Number of dead animal", "setting": "BALB/C mice; 300 mg/kg", "value": 5}, {"measurement": "MTD", "setting": "BALB/C mice; mice", "value": "> 100", "unit": "µmol/kg"}, {"measurement": "Metabolic half-life in the mice blood", "setting": "[4]", "value": "above 74 hours"}, {"measurement": "Effect on tumor in A549 model (in words)", "setting": "A549", "value": "could completely kill the tumor, with no recurrence of tumor in the later stage of the treatment"}]}]}
